Results taken from PubChem BioAssay (NCI).
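Values below derive from 48-hour exposures of cells grown in 96-well plates, with endpoints linearly interpolated between the two concentrations bracketing the appropriate inhibition level. At the GI50, growth is halved. The concentration for full growth arrest is given as TGI.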

Experiments:
Experiment in all cases: NCI tumour cell line growth inhibition, 48 h
[1] = system: UO-31 renal
[2] = system: LOX IMVI melanoma
[3] = system: SF-295 CNS
[4] = system: SF-268 CNS
[5] = system: IGROV1 ovarian
[6] = system: MDA-MB-435
[7] = system: CAKI-1 renal
[8] = system: OVCAR-4 ovarian
[9] = system: KM12 colon
[10] = system: ACHN renal

SMILES | GI50 [1] [µM] | TGI [1] [µM] | GI50 [2] [µM] | TGI [2] [µM] | GI50 [3] [µM] | TGI [3] [µM] | GI50 [4] [µM] | TGI [4] [µM] | GI50 [5] [µM] | TGI [5] [µM] | GI50 [6] [µM] | TGI [6] [µM] | GI50 [7] [µM] | TGI [7] [µM] | GI50 [8] [µM] | TGI [8] [µM] | GI50 [9] [µM] | TGI [9] [µM] | GI50 [10] [µM] | TGI [10] [µM]
Cn1c(COC(=O)NCCN2CCOCC2)nc2c(N3CCOCC3)nc(-c3ccccc3)nc21 | 0.838 | 2.18 | 0.256 | 1.1 | 2.09 | 5.99 | 1.38 | 2.95 | 0.656 | 2.15 | 1.07 | 2.47 | 0.449 | 1.72 | 1.11 | 2.53 | 1.53 | 3.4 | 0.936 | 2.23
C=C(C)[C@@H]1CCC[C@]2(C(=O)O)CC[C@]3(C)[C@@H](CC[C@@H]4[C@@]5(C)C/C(=C/c6ccncc6)C(=O)C(C)(C)[C@@H]5CC[C@]43C)[C@@H]12 | 1.74 | 4.65 | 1.84 | 3.5 | 2.04 | 6.63 | 3.81 | 91 | 3.02 | 9.31 | 2.6 | 6.88 | 3.34 | 13.9 | 4.31 | 67.4 | 1.8 | 3.87 | 2.84 | 11
CCCCCCCCCCCCCCCCCC1=NC(C)(C)CN1CCO | 1.57 | 3.05 | 1.54 | 2.87 | 1.79 | 3.68 | 1.8 | 3.27 | 1.56 | 3.11 | 1.73 | 3.42 | 1.6 | 3.37 | 3.12 | 9.8 | 1.78 | 3.16 | 1.58 | 2.99
CCC1(N2C(=O)c3c(F)c(F)c(F)c(F)c3C2=O)C(=O)NC(=O)N(c2ccccc2)C1=O (stereo not drawn) | 17.1 | 63.7 | 1.18 | 2.73 | 2.57 | 7.55 | 3.66 | 16 |  |  | 2.89 | 8.02 | 1.95 | 4 | 1.74 | 4.08 | 2.58 | 8.31 | 4.02 | 14.9
Cc1csc(Nc2nc(-c3cccc(Cl)c3)nc(C(Cl)(Cl)Cl)n2)n1 | 2.38 | 15.7 |  |  | 1.29 | 9.89 | 6.48 | > 33.3 | 15.7 | > 33.3 | 7.83 | > 33.3 | 3.07 | > 33.3 | 10.7 | > 33.3 | 1.64 | 6.21 | 0.888 | 3.46
CCOC(=O)C1=C(c2ccccc2)N(Cc2ccccc2)C2(O)C=CC(=O)C3C(=O)N(c4ccccc4)C(=O)C132 (stereo not drawn) |  |  | 1.34 | 2.67 | 2.9 | 11.5 | 2.56 | 8.08 |  |  | 1.95 | 4.51 | 3.08 | 9.71 | 2.94 | 10.8 | 1.74 | 3.21 | 1.9 | 4.23
O=C(CN=Cc1cccs1)CSC(c1ccccc1)c1ccccc1 |  |  | 25.8 | 82.2 | 35.1 | > 100 | 50.1 | > 100 |  |  | 17.7 | 36.3 | 24.9 | 67.1 | 26.5 | > 100 | 21 | 52.5 | 28.8 | 79.6
C#Cc1ccc(-n2c(/C=C/c3cc(OC)c(OC)c(OC)c3)nc3ncccc3c2=O)cc1 | 4.09 | > 100 | 4.61 | 64 |  |  | 5.33 | 98 | 6.08 | > 100 | 1.98 | 5.35 | 6.07 | > 100 | 12 | 90.3 | 3.32 | 12.8 | 6.63 | > 100
CN1c2ccccc2C(=O)Nc2cnc(Cl)nc21 |  | > 100 |  | > 100 |  | > 100 |  |  |  | > 100 |  | > 100 |  | > 100 |  | > 100 |  | > 100 |  | > 100
O=c1[nH]c(-c2ccccn2)nc2sc3c(c12)CCCCCC3 | 5.87 | > 100 | 1.09 | > 100 |  |  | 8.66 | > 100 | 3.98 | > 100 | > 100 | > 100 | 3.29 | > 100 | 5.88 | > 100 | 4.1 | > 100 | 5.19 | > 100
